Data as given in publication PMC6813295, “A tumour-selective cascade activatable self-detained system for drug delivery and cancer imaging” (Nature Communications, 2019).
Where two headings read alike, the source gives them in different places. Where a SMILES comes first, the peptide text is derived from it. The star is where a group is joined. X1 = CC1(C)C(=CC=C2CCCC(C=CC3=[N+](CCCCCC(=O)O)c4ccccc4C3(C)C)=C2*)N(CCCCCC(=O)O)c2ccccc21

Assays:
[1] = tested on: H460 tumour-bearing nude mice; assay: Pharmacokinetic parameters in tumour (DAS2.0); assay type: in vivo, mouse; conditions: IV 14 mg/kg; for AUC0→t / AUC0→∞ / CL / MRT(0-t), mean retention time / Tmax / t1/2β, elimination half-life: in tumour, means ± SD n = 3; for AUC0→t: 0–48 h
Description: (§1) Animal experiments were performed in accordance with the Guide for the Care and Use of Laboratory Animals and approved by the Institutional Animal Care and Use Committee (IACUC) of the National Center for Nanoscience and Technology (NCNST), China. Female Balb/c nude mice (6–8 weeks, 18–22 g) were purchased from Vital River Laboratory Animal Technology Co. Ltd. H460 cells were subcutaneously implanted into these mice on the right flank. Then the mice were randomly grouped (n = 3). When the tumour grew to a single aspect of about 0.5 cm, we injected the molecules 1, 2 and 3 intravenously in the same dose of 14 mg/kg in PBS solution, respectively. Fluorescence images were measured by a Maestro II in vivo imaging system (CRi) at 1, 2, 4, 6, 8, 12, 24, 48, 72, 96 and 120 h post injection. Further, tumours and other major organs (i.e., heart, liver, spleen, lung and kidney) were collected for ex vivo fluorescence imaging at 48 h post injection. The organ biodistribution of the 1, 2 and 3 was examined using H460 xenografts mice. The mice were sacrificed at 2, 4, 8, 12, 24 or 48 h post injection. Finally, all the major organs and tumour were collected, weighed, and homogenized (0.3 mL of lysis buffer per 100 mg of tissues). The homogeneous tissue solutions were obtained for fluorescence imaging by IVIS Spectrum CT. Known concentrations of compound 1, 2 or 3 are used to make the standard curve (concentration from 2.8 to 25.2 μg/mL), the “Predicted R-Squared” value of 0.99. Then we utilized this standard curve to measure the molecule content in each tissue. In addition, EJ xenograft tumour mice model was built, as above described, to validate the generality of the strategy.
Supplementary Table 1︱Pharmacokinetic parameters of intravenously-administered 1, 2 and 3 in […]
Data are presented as means ± SD (n = 3). t1/2β, elimination half -life; CL, plasma clearance; Cmax, maximum concentration; Tmax, peak time ; MRT: mean retention time; AUC(0 -t), area under the 1, 2 and 3 concentration-time curve from time zero to the last quantifiable value; AUC(0 -∞), area und er the 1, 2 and 3 concentration -time curve from time zero to infinity, which represents the total drug exposure over time. h, hour(s).

[2] = Blood circulation pharmacokinetics; assay type: in vivo, mouse; conditions: Balb/c mice, IV single dose 14 mg/kg, blood 0.017–6 h, fluorescence spectroscopy, DAS2.0, mean ± s.d. n = 3
Description: respectively. Cell viability (%) was equal to (Asample - Ablank)/ (Acontrol - Ablank) x 100. All the experiments were performed in triplicate.
Blood circulation. To investigate the pharmacokinetics of the compound 1, 2 and 3, Balb/c mice were randomly divided into three groups (n = 3). Each group was intravenous (iv) injected with a single dose of 14 mg/kg of compou nd 1, 2 or 3. Blood samples were collected via the orbital venous plexus at 0.017, 0.08 3, 0.25, 0.5, 1, 3, 4 and 6 h post injection and collected into EDTA tubes. The supernatant of the blood samples was collected by centrifugation at 10 000 rpm for 10 min , and the content of compound 1, 2 and 3 in the supernatant w ere determined using fluorescence spectrophotometric measurement. Data for known concentrations of compound 1, 2 or 3 (concentration from 1.2 μM to 25.0 μM) were used to make the standard curve, the “Predicted R-Squared” value of 0.99.
Preparation and characteristic of liposomes. Liposomes were prepared by a thin lipid film hydration method followed by extrusion. Briefly, PC: CH: DSPE -PEG-NHS = 66: 32: 2 (molar ratio) were dissolved in a chloroform/methanol mixture (4: 1) in a round bottom flask. The lipid film was hydrated with PBS (pH 7.4) after evaporation of the chloroform/methanol solvents. […]
3 h. […] Morphologies of liposomes were measured by Tecnai G20 electron microscope.

[3] = Organ biodistribution from fluorescence of tissue lysates; conditions: female, Balb/c nude, mouse, in vivo, iv, 14 mg/kg
Description: as §1
Supplementary Figure 35∣ Quantitative analysis of the fluorescence intensity. In order to ensure the accuracy of the results, we added a standard solution in every tested 96 -well plate. The fluorescence property of molecules 1, 2 and 3 were identical. We take molecule 1 as example to illustrate the quantitative analysis. a. The top view of fluorescence images of a serial concentration of molecule 1 by Maestro II. The number from 1 to 11 represented 2.8, 5.6, 8.4, 11.2, 14.0, 16.8, 19.6, 22.4, 25.2, 28.0, 35.0 (μg/mL), respectively. The control group represented PBS buffer. b.
Fluorescence intensity (relative to the background signal) increase d linearly with the concentration […]
(1 picture or pasted object on this page, not shown here)
Supplementary Figure 36 ∣ Representative NIR fluorescence images of tissue lysates. The molecules 1, 2 and 3 (14 mg/kg, n = 3) on H460 tumour-bearing mice after intravenous administration in three groups. The mice were sacrificed at 2 h, 4 h, 8 h, 12 h, 24 h or 48 h post injection . […] The homogenous tissue solutions were obtained for fluorescence imaging. […]

[4] = fluorescence of diluted tissue lysates, mean ± s.d. n = 3, read-out: tumour uptake / accumulation efficiency at 48 h post injection

For `CC[C@H](C)[C@H](NC(=O)[C@@H]1CCCN1C(=O)[C@@H](NC(=O)[C@H](C)N)C(C)C)C(=O)N[C@@H](C)C(=O)N[C@@H](CCC(N)=O)C(=O)N[C@@H](CCCCN)C(=O)N[C@@H](CC(=O)O)C(=O)N[C@@H](CCC(=O)O)C(=O)N[C@H](C(=O)N[C@@H](CC(=O)O)C(=O)N[C@@H](CCCCN)C(=O)N[C@@H](CC(C)C)C(=O)N[C@H](C(=O)N[C@@H](Cc1ccccc1)C(=O)N[C@@H](Cc1ccccc1)C(=O)N[C@@H](C)C(=O)N[C@@H](CCC(=O)O)C(=O)N[C@@H](CSC1=C(C=CC2=[N+](CCCCCC(=O)O)c3ccccc3C2(C)C)CCCC1=CC=C1N(CCCCCC(=O)O)c2ccccc2C1(C)C)C(=O)NCC(=O)O)C(C)C)C(C)C` [molecule 1] (H-AVPIAQKDEVDKLVFFAEC(X1)G-OH), the “AUC0–48h in tumour of molecule 1 relative to 2” value [1] was “six-fold”, the “AUC0–48h in tumour of molecule 1 relative to 3” value [1] was “three-fold” and the AUC0→t [1] was 71.2 ± 4.7 mg·h/g. For the same compound, the “AUC0→∞” value [1] was 145.9 ± 1.0 mg·h/g, the CL [1] was 1.3 ± 0.5 mL/min/kg and the “MRT(0-t), mean retention time” value [1] was 23.4 ± 0.2 h. The Tmax [1] was 4.0 ± 0 h, the “t1/2β, elimination half-life” value [1] was 69.3 ± 0 h and the “blood circulation half-life (t1/2β)” value [2] was 1.15 ± 0.10 h. The tissue uptake at 48 h [3, 4] was 9.2 ± 0.5 %ID/g and the tissue uptake at 48 h ([3]; fluorescence of tissue lysates, mean ± s.d. n = 3, read-out: liver retention at 48 h post injection) was 4.1 ± 0.2 %ID/g.

With `CC[C@H](C)[C@H](NC(=O)[C@@H]1CCCN1C(=O)[C@@H](NC(=O)[C@H](C)N)C(C)C)C(=O)N[C@@H](C)C(=O)N[C@@H](CCC(N)=O)C(=O)N[C@@H](CCCCN)C(=O)N[C@@H](CC(=O)O)C(=O)N[C@@H](CCC(=O)O)C(=O)N[C@H](C(=O)N[C@@H](CC(=O)O)C(=O)N[C@@H](CCC(=O)O)C(=O)N[C@@H](CSC1=C(C=CC2=[N+](CCCCCC(=O)O)c3ccccc3C2(C)C)CCCC1=CC=C1N(CCCCCC(=O)O)c2ccccc2C1(C)C)C(=O)NCC(=O)O)C(C)C` [molecule 3] (H-AVPIAQKDEVDEC(X1)G-OH; N-terminus assumed) the AUC0→t [1] was 26.6 ± 8.9 mg·h/g, the “AUC0→∞” value [1] was 34.6 ± 12.2 mg·h/g and the CL [1] was 7.33 ± 2.5 mL/min/kg. For the same compound, the “MRT(0-t), mean retention time” value [1] was 10.7 ± 1.8 h, the Tmax [1] was 6.7 ± 2.3 h and the “t1/2β, elimination half-life” value [1] was 10.6 ± 2.8 h. The “blood circulation half-life (t1/2β)” value [2] was 1.06 ± 0.17 h and the tissue uptake at 48 h [3, 4] was 5.3 ± 0.8 %ID/g.

In the case of `CSCC[C@H](N)C(=O)N[C@@H](CC(=O)O)C(=O)N[C@@H](CCC(=O)O)C(=O)N[C@@H](CCCCN)C(=O)N[C@@H](C)C(=O)N[C@@H](CCC(N)=O)C(=O)N[C@@H](CCCCN)C(=O)N[C@@H](CC(=O)O)C(=O)N[C@@H](CCC(=O)O)C(=O)N[C@H](C(=O)N[C@@H](CC(=O)O)C(=O)N[C@@H](CCCCN)C(=O)N[C@@H](CC(C)C)C(=O)N[C@H](C(=O)N[C@@H](Cc1ccccc1)C(=O)N[C@@H](Cc1ccccc1)C(=O)N[C@@H](C)C(=O)N[C@@H](CCC(=O)O)C(=O)N[C@@H](CSC1=C(C=CC2=[N+](CCCCCC(=O)O)c3ccccc3C2(C)C)CCCC1=CC=C1N(CCCCCC(=O)O)c2ccccc2C1(C)C)C(=O)NCC(=O)O)C(C)C)C(C)C` [molecule 2] (H-MDEKAQKDEVDKLVFFAEC(X1)G-OH; N-terminus assumed), the AUC0→t [1] is reported as 12.2 ± 1.9 mg·h/g, the “AUC0→∞” value [1] is reported as 14.1 ± 2.2 mg·h/g and the CL [1] is reported as 16.7 ± 2.5 mL/min/kg. For the same compound, the “MRT(0-t), mean retention time” value [1] was 15.2 ± 4.5 h, the Tmax [1] was 3.3 ± 1.2 h and the “t1/2β, elimination half-life” value [1] was 10.0 ± 1.9 h. It also gave a tissue uptake at 48 h [3, 4] of 4.2 ± 0.1 %ID/g.
